Test results taken from patent US12053528B2, “Topical formulations comprising polyoxyl lipid or fatty acid and polyalkoxylated alcohol, and uses thereof” (Sun Pharmaceutical Industries Limited, priority 2015, dated 2024).

Test: Ocular tissue distribution of RX-10045 nanomicellar formulations (LC-MS/MS)
Assay type: in vivo, New Zealand White Rabbits
Details: after topical RX-10045 formulations 4x/day for 5 days
Method: A study is conducted in rabbits to test the tolerance and ocular tissue distribution of two nanomicellar formulations of active compound against matching placebos (Table 7a and 7b) and balanced saline solution (BSS). Healthy New Zealand female white rabbits (2-3 kg) are used for this study. One drop (approximately 35 μL) of study drug is applied o.d. 4×/day at two hour intervals for 5 days. One drop of BSS is applied to the contralateral eye.
Selected ocular fluids/tissues (aqueous humor, vitreous humor, conjunctiva, cornea, iris-ciliary body, lens, retina/choroid, and sclera) collected from two rabbits each in the active agent (0.15% in HCO-60, 0.1 in HCO-40) treatment groups, and from one rabbit in each of the matching placebo groups, are assayed for active compound by liquid chromatography-tandem mass spectrometry (LC-MS/MS). Warfarin-d5 and 5-HDA are used as internal standards for the analysis of RX-10045 and its active metabolite, RX-10008, respectively, in aqueous humor and vitreous humor. For the other ocular tissues (solid tissues), warfarin-d5 and phenyl acetic acid-d5 (PAA-d5) are used as the internal standards for compound 1001 and RX-10008, respectively. The analytical range for the solid tissues is 0.125-100 ng. The results of the solid tissue analyses are converted to ng/g by correcting for the amount of tissue analyzed.

C#CC[C@@H](O)/C=C/C=C/C#C[C@@H](O)CCCC(=O)OC(C)C [compound 1001]
Compound 1001 in the majority of ocular tissues: either not detected or is below the quantitation limit of the assay
Concentrations of the compound 1001 ester prodrug in the sclera and conjunctiva: sporadic, relatively low
Hydrolysis to active metabolite RX-10008 in ocular tissues: rapidly hydrolyzed
